pIC50: −log10 of the molar value. Values joined by “and” are separate entries in the source; they are usually repeats but may differ in a detail not shown here. Equal values may be shown once.
How the values were obtained:
[1] = system: ovariectomized (Ovx) rats; assay: Bone anabolism in the ovariectomized rat; assay type: in vivo; design: Urine Calcium/Creatinine (6th Week): unit not given here; conditions: for Whole Femur BMD: weeks 3-6 post-ovariectomy
Description: Three month old rats are ovariectomized (Ovx) and administered either 1,25-dihydroxy vitamin D3 (vit. D in Table) or one of the compounds of the present invention once a day by mouth starting at 3 weeks post-ovariectomy and continuing until final sacrifice at 6 weeks postovariectomy. Control groups, both sham (rats that were not ovariectomized) and Ovx, received vehicle only. Blood and urine samples were collected twice, at 4 weeks post-ovariectomy and again at the 6 week mark and the amount of serum and urine calcium was determined. The final femoral calcium was determined upon sacrifice 6 weeks post-ovariectomy.
The bone mineral density of the right femur was determined by using a High Resolution Software Package on a QDR-1000W Bone Densitometer™ (Hologic, Walthan, Mass.). The animals were scanned by placing them on a scanning block in a supine position such that the right leg was perpendicular to the main body and the tibia was perpendicular to the femur. The increase in the bone mineral density and the amount of calcium in the urine and the serum for some of the compounds of this invention in this assay are given in the table below: […]

MCF-7 cells = assay: Cell proliferation assay in MCF-7 breast cancer cells; assay type: cell-based; conditions: Homo sapiens, MCF7, 168 h; MCF-7, 7 days of culture with analog, Coulter count; read-out: IC50, concentration causing 50% reduction in MCF-7 cell growth in culture
Method: MCF-7 cells are human mammary carcinoma cells that are positive for estrogen receptors. The potential activity of vitamin D3 analogs against breast cancer was assessed from inhibition of proliferation of MCF-7 cells in culture.
MCF-7 cells were plated at 9000 cells/well in 24-well plates and incubated at 37° C. in 5% CO2/95% air in Dulbecco's Modified Eagle Medium containing 10% fetal bovine serum, 700 nM insulin, 2 mM glutarnine, 0.1 mM MEM non-essential amino acids and 1 mM sodium pyruvate. Stock solutions of vitamin D3 analogs were prepared at a concentration of 10 mM in absolute ethanol and stored at −20° C. under argon. Four days after plating, the number of MCF-7 were counted by removing the medium in 8 wells, rinsing the cells with 0.5 ml PBS without Ca/Mg and then incubating the cells with 0.3 ml of trypsin-EDTA. After 15 min., the trypsinization was stopped by adding 0.3 ml of medium. 0.2 ml aliquot was transferred from each well into dilu-vials containing 10 ml isoton and the number of cells were counted on Coulter Counter™ (Coulter, Miami, Fla.).
MCF-7 cells in the remaining wells were refed with either control medium or medium containing varying concentrations of the vitamin D3 analog. After a further 7 days of culture, the number of MCF-7 cells in each well was assessed by removing the medium, rinsing the cells with 0.5 ml PBS without Ca/Mg and then incubating the cells with 0.5 ml of trypsin-EDTA for 15 min. The trypsinization was stopped by adding 0.5 ml of medium and 0.1 ml aliquot from each well was transferred into dilu-vials containing 10 ml isoton and the number of cells were counted on Coulter Counter™.

ZR-75 cells = assay: Cell proliferation assay in ZR-75 breast cancer cells (MTT); assay type: cell-based; conditions: Homo sapiens, ZR75, 240 h, ZR-75, 10 days of culture with analog, read-out: IC50, concentration corresponding to half-maximal reduction in 570 nm absorbance
Method: ZR-75 cells are human mammary carcinoma cells that are positive for estrogen receptors. The potential activity of vitamin D3 analogs against breast cancer was assessed from inhibition of proliferation of ZR-75 cells in culture.
ZR-75 cells were plated at 12,500 cells/well in 24-well plates and incubated at 37° C. in 5% CO2/95% air in RPMI medium containing 10% fetal bovine serum and 2 mM L-glutamine. Stock solutions of vitamin D3 analogs were prepared at a concentration of 10 mM in absolute ethanol and stored at −20° C. under argon. One day after plating, ZR-75 cells were refed with either control medium or medium containing varying concentrations of the vitamin D3 analog.

[2] = system: rats with secondary hyperparathyroidism due to renal failure; assay: Secondary hyperparathyroidism in the rat renal insufficiency model (7/8 nephrectomy); assay type: in vivo; conditions: 7/8 nephrectomized rats, 0.1 μg/kg/day oral, seven days; for PTH T=1-T=0: change in serum PTH; for Final Ca Levels: serum calcium
Method: Female sprague Dawley rats were anesthetized, their right kidney removed and 2-3 branches of the left renal artery were ligated to achieve 7/8 nephrectomy. They were placed on a high phosphorous diet (0.06% Ca and 0.08 phosphorous). Approximately 3-6 weeks after surgery, rats were bled to screen serum PTH levels and rats with PTH levels between 100-500 pg/ml were selected for the study.
There was a pre-bleed (T=0) and each group was dosed daily for seven days by oral […] with either the compound of Formula (I) (0.1 μg/kg/day), vehicle control or 1,25-(OH)2 vitamin D3 positive control. Compounds were predissolved in ethanol and diluted with vehicle (Miglyol 812) followed by evaporation of the ethanol.
After the last day of dosing, the animals were bled again (T=1) and sacrificed. Serum PTH assays were done with Nichols Institute Diagnostic Kit #40-2240. Serum calcium assays were done with Sigma Diagnostic Kit #587 with o-cresophthalein. Serum creatinine assays were done with Sigma Diagnostic Kit #1600-320 with ammonium molybdate.

[3] = system: women with postmenopausal osteoporosis; conditions: cited from earlier work

| SMILES | pIC50 (MCF-7 cells) | pIC50 (ZR-75 cells) | PTH T=1-T=0 [2] [pg/mL] | Final Ca Levels [2] [mg/dL] | other results |
| --- | --- | --- | --- | --- | --- |
| C=C1/C(=C\C=C2/CCC[C@]3(C)[C@@H]([C@H](C)CCCC(C)(C)O)CC[C@@H]23)C[C@@H](O)C[C@@H]1O [1,25-di(OH)-cholecalciferol, 1,25-dihydroxy-cholecalciferol, reference compound] | 6.83 | 7.89 | -18 | 9.75 | Serum Calcium (6th Week) ([1]; 0.200 μg/kg/day by mouth, listed as Vit D): 9.49 mg/dL and 10.65 mg/dL; lower rate of new vertebral fractures compared with elemental calcium 1000 mg/day ([3]; mild to moderate postmenopausal osteoporosis, 0.25 microgram twice daily, after 3 years): 3 fold; tolerability ([3]; overall): well tolerated; steroid-induced bone loss ([3]; patients starting prednisone or prednisolone, 0.5 to 1.0 micrograms/day plus calcium 1000 mg/day, with or without calcitonin): prevented steroid-induced bone loss |
| C=C1/C(=C\C=C2/CCC[C@]3(C)[C@@H](C4(CC#CC(O)(C(F)(F)F)C(F)(F)F)CC4)CC[C@@H]23)C[C@@H](O)C[C@@H]1O [Cpd #3, 1,25-dihydroxy-23-yne-26,27-hexafluoro-20,21,28-cyclopropyl-cholecalciferol] | 10.52 | 11.00 | -70 | 10.7 | Serum Calcium (6th Week) ([1]; 0.010 μg/kg/day by mouth): 10.25 mg/dL; Urine Calcium/Creatinine (6th Week) ([1]; 0.010 μg/kg/day by mouth): 0.83; Whole Femur BMD ([1]; 0.010 μg/kg/day by mouth): 0.24 g/cm² |
| C[C@]12CCC/C(=C\C=C3C[C@@H](O)C[C@H](O)C3)[C@@H]1CC[C@@H]2C1(CC#CC(O)(C(F)(F)F)C(F)(F)F)CC1 [Cpd #4, 1,25-dihydroxy-23-yne-26,27-hexafluoro-20,21,28-cyclopropyl-19-norcholecalciferol] | 10.30 | 9.82 | -137 | 10.1 | Serum Calcium (6th Week) ([1]; 0.005 μg/kg/day by mouth): 8.94 mg/dL; Urine Calcium/Creatinine (6th Week) ([1]; 0.005 μg/kg/day by mouth): 0.60; Whole Femur BMD ([1]; 0.005 μg/kg/day by mouth): 0.241 g/cm² |
| C=C1/C(=C\C=C2/CCC[C@]3(C)[C@@H](C4(CC#CC(C)(C)O)CC4)CC[C@@H]23)C[C@@H](O)C[C@@H]1O [compound 1, 1,25-dihydroxy-23-yne-20,21,28-cyclopropyl-cholecalciferol] | 9.30 |  |  |  |  |
| CC(C)(O)C#CCC1([C@H]2CC[C@H]3/C(=C/C=C4C[C@@H](O)C[C@H](O)C4)CCC[C@]23C)CC1 [compound 2, 1,25-dihydroxy-23-yne-20,21,28-cyclopropyl-19-nor-cholecalciferol] | 9.52 | 9.05 |  |  |  |
| C=C1/C(=C\C=C2/CCC[C@]3(C)[C@@H](C4(C/C=C\C(O)(C(F)(F)F)C(F)(F)F)CC4)CC[C@@H]23)C[C@@H](O)C[C@@H]1O [compound 5, 1,25-dihydroxy-23-(Z)-ene-26,27-hexafluoro-20,21,28-cyclopropyl-cholecalciferol] | 10.52 | 10.00 |  |  |  |
| C[C@]12CCC/C(=C\C=C3C[C@@H](O)C[C@H](O)C3)[C@@H]1CC[C@@H]2C1(C/C=C\C(O)(C(F)(F)F)C(F)(F)F)CC1 [compound 6, 1,25-dihydroxy-23-(Z)-ene-26,27-hexafluoro-20,21,28-cyclopropyl-19-norcholecalciferol] | 10.52 | 10.00 |  |  |  |
